{
  "source": "patent US20240225053A9",
  "about": "(priority 2021, published 2024)",
  "type_in_all_cases": "cell-based",
  "key": {"[1]": {"test_system": "Clostridium perfringens ATCC10873", "design": "key to Settling: Good: Settling effect observed; Poor: No settling effect observed", "conditions": "for Settling: 37° C., 8 hours"}, "[2]": {"test_system": "Clostridium perfringens ATCC10873", "conditions": "for Shape: 8 hours"}, "[3]": {"test_system": "Clostridium perfringens SM101 (CPE toxin producer)", "design": "key to Agglomeration: Good: Agglomeration effect observed; Poor: No agglomeration effect observed", "conditions": "500 mM"}, "[4]": {"test_system": "Clostridium perfringens CNEOP004 (netB toxin producer)", "design": "key to Agglomeration: Good: Agglomeration effect observed; Poor: No agglomeration effect observed", "conditions": "500 mM"}, "[5]": {"test_system": "Clostridium perfringens ATCC10873", "design": "unit not given here", "conditions": "bacterial cells, 500 mM, 8 hours, diluted 100 times"}, "[6]": {"test_system": "Clostridium perfringens SM101", "design": "unit not given here", "conditions": "bacterial cells, 500 mM, 8 hours, diluted 100 times"}, "[7]": {"test_system": "Clostridium perfringens CNEOP004", "design": "unit not given here", "conditions": "bacterial cells, 500 mM, 8 hours, diluted 100 times"}, "[8]": {"test_system": "Lactobacillus casei ATCC393", "design": "key to Agglomeration: Good: Those in which agglomeration observed under upright microscope; Poor: Those in which no agglomeration observed under upright microscope"}, "[9]": {"test_system": "Bifidobacterium animalis JCM1190", "design": "key to Agglomeration: Good: Those in which agglomeration observed under upright microscope; Poor: Those in which no agglomeration observed under upright microscope"}, "[10]": {"test_system": "Salmonella enterica IAM1648", "design": "key: Good: Those in which agglomeration observed under upright microscope; Poor: Those in which no agglomeration observed under upright microscope"}, "Escherichia coli MG1655": {"test_system": "Escherichia coli MG1655", "design": "key: Good: Those in which agglomeration observed under upright microscope; Poor: Those in which no agglomeration observed under upright microscope"}, "[11]": {"test_system": "mixed bacterial cells of Clostridium perfringens ATCC10873, Salmonella enterica IAM1648 and E. coli MG1655", "conditions": "500 mM in combination with Arabic Gum 1%; OD660 about 2.0, 37° C."}, "[12]": {"test_system": "Clostridium perfringens strain SM101", "conditions": "KCl 500 mM"}, "[13]": {"test_system": "Clostridium perfringens ATCC10873", "design": "key: Good: Agglomeration effect observed; Poor: No agglomeration effect observed"}, "[14]": {"test_system": "Clostridium perfringens ATCC10873", "design": "key: Good: Those in which agglomeration observed under upright microscope; Poor: Those in which no agglomeration observed under upright microscope", "conditions": "Table 4, 500 mM"}, "[15]": {"conditions": "absence of AG, Example 2 strains"}},
  "note": "Where two headings read alike, the source gives them in different places.",
  "data": [
    {"smiles": "[Cl-].[K+]", "note": "[KCl]", "values": [
      {"measurement": "Settling", "setting": "[1]; 100 mM, without AG", "value": "Good"},
      {"measurement": "Settling", "setting": "[1]; 500 mM, w/AG 1%", "value": "Good"},
      {"measurement": "Settling", "setting": "[1]; 500 mM, without AG", "value": "Good"},
      {"measurement": "Concentration required for settling / at which settling was confirmed", "setting": "[1]; absence of AG, optical density about 2.0 at 660 nm", "value": "≥ 100", "unit": "mM"},
      {"measurement": "Shape", "setting": "[2]; 100 mM, without AG", "value": "Spheroidal"},
      {"measurement": "Shape", "setting": "[2]; 500 mM, w/AG 1%", "value": "Spheroidal"},
      {"measurement": "Shape", "setting": "[2]; 500 mM, without AG", "value": "Spheroidal"},
      {"measurement": "Agglomeration (text)", "setting": "[2]; [15]", "value": "did not agglomerate"},
      {"measurement": "Shape of the bacterial cells", "setting": "[2]; [15]", "value": "changed from bacilli to cocci"},
      {"measurement": "Agglomeration (text)", "setting": "[2]; coexistence with AG, Example 2 strains", "value": "agglomerated in the state of cocci"},
      {"measurement": "Shape", "setting": "[3]; w/AG 1%, 8 hours", "value": "Spheroidal"},
      {"measurement": "Shape", "setting": "[3]; without AG, 8 hours", "value": "Spheroidal"},
      {"measurement": "Agglomeration", "setting": "[3]; Table 2-2, w/AG 1%, 8 hours", "value": "Good"},
      {"measurement": "Agglomeration", "setting": "[3]; Table 2-2, without AG, 8 hours", "value": "Poor"},
      {"measurement": "Agglomeration", "setting": "[3]; Table 3-2, w/AG 1%", "value": "Good"},
      {"measurement": "Agglomeration", "setting": "[3]; Table 3-2, without AG", "value": "Poor"},
      {"measurement": "Shape", "setting": "[4]; w/AG 1%, 8 hours", "value": "Spheroidal"},
      {"measurement": "Shape", "setting": "[4]; without AG, 8 hours", "value": "Spheroidal"},
      {"measurement": "Agglomeration", "setting": "[4]; Table 2-3, w/AG 1%, 8 hours", "value": "Good"},
      {"measurement": "Agglomeration", "setting": "[4]; Table 2-3, without AG, 8 hours", "value": "Poor"},
      {"measurement": "Agglomeration", "setting": "[4]; Table 3-3, w/AG 1%", "value": "Good"},
      {"measurement": "Agglomeration", "setting": "[4]; Table 3-3, without AG", "value": "Poor"},
      {"measurement": "Zeta potential", "setting": "[5]; W/AG 1%", "value": "−10.2"},
      {"measurement": "Zeta potential", "setting": "[5]; without AG", "value": "−29.0"},
      {"measurement": "Zeta potential", "setting": "[6]; w/AG 1%", "value": "−26.5"},
      {"measurement": "Zeta potential", "setting": "[6]; without AG", "value": "−30.2"},
      {"measurement": "Zeta potential", "setting": "[7]; w/AG 1%", "value": "−23"},
      {"measurement": "Zeta potential", "setting": "[7]; without AG", "value": "−25"},
      {"measurement": "Agglomeration", "setting": "[8]", "value": "Poor"},
      {"measurement": "Agglomeration effect", "setting": "[8]", "value": "not exerted"},
      {"measurement": "Agglomeration", "setting": "[9]", "value": "Poor"},
      {"measurement": "Agglomeration effect", "setting": "[9]", "value": "not exerted"},
      {"measurement": "Agglomeration", "setting": "[10]", "value": "Poor and Good"},
      {"measurement": "Agglomeration", "setting": "Escherichia coli MG1655", "value": "Poor and Good"},
      {"measurement": "Agglomeration of the three types of enteric bad bacteria", "setting": "[11]", "value": "can quickly agglomerate"},
      {"measurement": "Nature of cocci (vegetative cells or spores) under phase-contrast microscope", "setting": "[12]", "value": "not spores"},
      {"measurement": "Agglomeration", "setting": "[13]; Table 2-1, 100 mM, without AG, 8 hours", "value": "Poor"},
      {"measurement": "Agglomeration", "setting": "[13]; Table 2-1, 500 mM, w/AG 1%, 8 hours", "value": "Good"},
      {"measurement": "Agglomeration", "setting": "[13]; Table 2-1, 500 mM, without AG, 8 hours", "value": "Poor"},
      {"measurement": "Agglomeration", "setting": "[13]; Table 3-1, 500 mM, W/AG 1%", "value": "Good"},
      {"measurement": "Agglomeration", "setting": "[13]; Table 3-1, 500 mM, without AG", "value": "Poor"},
      {"measurement": "Agglomeration", "setting": "[14]; W/AG 1%", "value": "Good"},
      {"measurement": "Agglomeration", "setting": "[14]; without AG", "value": "Poor"}
    ]}
  ]
}
